The record followed here is ChEMBL document CHEMBL1127995, “Synthesis and structure-activity relationships of pyrrolidine-modified analogs of the potent cholinergic channel activator, ABT 418” (Bioorg Med Chem Lett, 1994).

The target of data set [1] is Neuronal acetylcholine receptor; alpha4/beta2 (Rattus norvegicus, UniProt P09483+P12390). The data set is described as follows: Binding affinity for Nicotinic acetylcholine receptor alpha4-beta2 by displacement of [3H](-)-cytisine from whole rat brain membranes. In kind it is cell membranes, Membrane.
Neuronal acetylcholine receptor; alpha4/beta2, sequence (P09483 whole entry): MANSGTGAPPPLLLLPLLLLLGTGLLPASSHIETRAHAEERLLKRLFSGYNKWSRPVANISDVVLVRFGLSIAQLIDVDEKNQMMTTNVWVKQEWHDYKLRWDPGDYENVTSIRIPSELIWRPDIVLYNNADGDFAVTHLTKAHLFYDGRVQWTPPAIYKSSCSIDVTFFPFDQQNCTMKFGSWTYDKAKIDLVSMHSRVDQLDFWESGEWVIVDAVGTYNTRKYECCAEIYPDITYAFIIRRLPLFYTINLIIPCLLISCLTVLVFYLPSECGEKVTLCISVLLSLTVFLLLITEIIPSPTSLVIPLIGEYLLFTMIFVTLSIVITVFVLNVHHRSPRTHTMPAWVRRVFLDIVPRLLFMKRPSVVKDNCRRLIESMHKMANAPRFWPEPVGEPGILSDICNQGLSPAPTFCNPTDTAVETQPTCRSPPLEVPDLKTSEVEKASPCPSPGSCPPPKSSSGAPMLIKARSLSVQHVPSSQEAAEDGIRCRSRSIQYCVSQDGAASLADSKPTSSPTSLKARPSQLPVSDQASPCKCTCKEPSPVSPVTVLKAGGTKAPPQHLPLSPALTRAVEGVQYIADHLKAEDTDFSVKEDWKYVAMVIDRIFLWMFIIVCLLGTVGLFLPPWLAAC
Neuronal acetylcholine receptor; alpha4/beta2, sequence (P12390 whole entry): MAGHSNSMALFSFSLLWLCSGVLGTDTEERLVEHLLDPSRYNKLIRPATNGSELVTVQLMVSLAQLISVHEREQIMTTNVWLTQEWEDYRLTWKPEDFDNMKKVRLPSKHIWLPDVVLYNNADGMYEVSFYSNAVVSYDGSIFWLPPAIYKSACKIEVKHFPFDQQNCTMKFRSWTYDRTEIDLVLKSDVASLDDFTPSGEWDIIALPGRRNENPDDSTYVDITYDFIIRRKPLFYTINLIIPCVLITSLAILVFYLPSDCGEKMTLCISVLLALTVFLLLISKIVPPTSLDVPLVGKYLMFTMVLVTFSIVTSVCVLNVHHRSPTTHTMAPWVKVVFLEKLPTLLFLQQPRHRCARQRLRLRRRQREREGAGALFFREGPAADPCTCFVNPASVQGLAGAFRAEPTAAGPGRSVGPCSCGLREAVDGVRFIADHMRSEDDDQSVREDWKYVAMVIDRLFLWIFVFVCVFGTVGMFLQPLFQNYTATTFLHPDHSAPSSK
Data set [2] in a line: In vitro half life was determined. The data set is classed as ADME.

For `Cc1cc([C@@H]2CC[C@H](c3ccccc3)N2C)on1`, the inhibitory constant (Ki) in data set [1] was above 10 µM.
Same read-out and setting: then `Cc1cc([C@@H]2[C@@H](CO)CCN2C)on1`, with above 10 µM.
On the same count and under the same terms, then `COC(=O)CC1CC[C@@H](c2cc(C)no2)N1C` (some centres undefined), with 3.5 µM.
Regarding `Cc1cc([C@@H]2CC[C@@H](C)N2C)on1`, the half-life in data set [2] was 26 min. In data set [1], the Ki stood at 0.071 µM.
Molecule `Cc1cc([C@@H]2CC[C@@H](c3ccccc3)N2C)on1` yielded a Ki in data set [1] of 8 µM.
On the same count and under the same terms, next, `CCCC[C@@H]1CC[C@@H](c2cc(C)no2)N1C`: 1.02 µM.
The same measure, in the same setting: next, `CCCC[C@H]1CC[C@@H](c2cc(C)no2)N1C`: 3.67 µM.
`Cc1cc([C@@H]2CC[C@H](C)N2C)on1` gave a half-life in data set [2] of 48.3 min. Also, in data set [1], the Ki is 5 µM.
In the case of `Cc1cc([C@@H]2C(C)CCN2C)on1` (single isomer, unassigned), the inhibition constant (Ki) in data set [1] was above 10 µM.
On the same count and under the same terms, next, `Cc1cc([C@@H]2C(COC(=S)Oc3ccccc3)CCN2C)on1` (single isomer, unassigned): 0.84 µM.
Take `Cc1cc([C@@H]2CCCN2C)on1` [ABT-418]: the half-life in data set [2] stood at 47.3 min. Moreover, the Ki in data set [1] was 0.003 µM.
